{"source": "patent US7868135B2", "about": "“Compositions of lipopeptide antibiotic derivatives and methods of use thereof” (priority 2003, dated 2011)", "note": "Starred links: 1 amine or outer side, 2 acyl side, 3 side chain; linkers in the order of their positions; H or OH if unused. Positions of bridges follow the written chain, without caps; N, C: chain ends. Non-standard residues stand in square brackets, D forms with d. Residues, ends and D or L forms follow the SMILES beside them. ξ: configuration not given here. *: point of attachment. X6 = CC(NC(=O)C12CC3CC(CC(C3)C1)C2)C(N[*:1])C(=O)[*:2]; X10 = CC(C)=CCC/C(C)=C/C(=O)NC(C)C(N[*:1])C(=O)[*:2]; X11 = CC(NC(=O)CC1CC2CCC1C2)C(N[*:1])C(=O)[*:2]; X42 = CC(NC(=O)CNCc1ccccc1)C(N[*:1])C(=O)[*:2]; X40 = CC(NC(=O)CCN1CCNCC1)C(N[*:1])C(=O)[*:2]; X15 = CC(NC(=O)CCNC(N)=O)C(N[*:1])C(=O)[*:2]; X45 = CCN(CC)CCC(=O)NC(C)C(N[*:1])C(=O)[*:2]; ξAbu(βξ-NH2) = CC(N[*:3])C(N[*:1])C(=O)[*:2]; X21 = CC(=O)SCC(=O)NC(C)C(N[*:1])C(=O)[*:2]; X26 = COC(=O)CC(=O)NC(C)C(N[*:1])C(=O)[*:2]; X38 = CC(NC(=O)CCCN(C)C)C(N[*:1])C(=O)[*:2]; X16 = CCC(=O)C(=O)NC(C)C(N[*:1])C(=O)[*:2]; X24 = C/C=C/C(=O)NC(C)C(N[*:1])C(=O)[*:2]; X20 = CC#CC(=O)NC(C)C(N[*:1])C(=O)[*:2]; X44 = CCNCC(=O)NC(C)C(N[*:1])C(=O)[*:2]; X39 = C=CC(=O)NC(C)C(N[*:1])C(=O)[*:2]; Pentadecanoyl = CCCCCCCCCCCCCCC(=O)*; ξAsp(βξ-Me) = CC(C(=O)O)C(N)C(=O)O; X27 = CCCCCCCC/C=C/CCCCCCCC(=O)*; Pip = O=C(O)[CH]1CCCCN1"}
{"system": "Staphylococcus aureus (MSSA)", "settings": "24 h", "in_short": "(§1)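 Broth microdilution MIC per NCCLS M7-A6 with doubling serial dilutions, in cation-adjusted Mueller-Hinton broth supplemented with 0.625 mM calcium.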", "units": {"MIC": "µg/mL"}}
{"smiles": "CCCCCCCCCCCCCCC(=O)NC(CC(=O)O)C(=O)NC1C(=O)N2CCCCC2C(=O)NC(C(C)C(=O)O)C(=O)NC(CC(=O)O)C(=O)NCC(=O)NC(CC(=O)O)C(=O)NCC(=O)NC(C(C)NC(=O)CC2CC3CCC2C3)C(=O)NC(C(C)C)C(=O)N2CCCC2C(=O)NC1C", "note": "(stereo not drawn) [Compound 208, C15-Amphomycin-9-(2-Norbornaneacetyl)] (Pentadecanoyl-D[ξAbu(βξ-NH2)][Pip][ξAsp(βξ-Me)]DGDG[X11]VP; lactam 2-C; configuration not given here)", "MIC": 4}
{"smiles": "CCCCCCCCCCCCCCC(=O)NC(CC(=O)O)C(=O)NC1C(=O)N2CCCCC2C(=O)NC(C(C)C(=O)O)C(=O)NC(CC(=O)O)C(=O)NCC(=O)NC(CC(=O)O)C(=O)NCC(=O)NC(C(C)NC(=O)CCNC(N)=O)C(=O)NC(C(C)C)C(=O)N2CCCC2C(=O)NC1C", "note": "(stereo not drawn) [Compound 212, C15-Amphomycin-9-(Carbamoyl-β-Ala)] (Pentadecanoyl-D[ξAbu(βξ-NH2)][Pip][ξAsp(βξ-Me)]DGDG[X15]VP; lactam 2-C; configuration not given here)", "MIC": 1}
{"smiles": "C=CC(=O)NC(C)C1NC(=O)CNC(=O)C(CC(=O)O)NC(=O)CNC(=O)C(CC(=O)O)NC(=O)C(C(C)C(=O)O)NC(=O)C2CCCCN2C(=O)C(NC(=O)C(CC(=O)O)NC(=O)CCCCCCCCCCCCCC)C(C)NC(=O)C2CCCN2C(=O)C(C(C)C)NC1=O", "note": "(stereo not drawn) [Compound 213, C15-Amphomycin-9-Acryl] (Pentadecanoyl-D[ξAbu(βξ-NH2)][Pip][ξAsp(βξ-Me)]DGDG[X39]VP; lactam 2-C; configuration not given here)", "MIC": 2}
{"smiles": "C/C=C/C(=O)NC(C)C1NC(=O)CNC(=O)C(CC(=O)O)NC(=O)CNC(=O)C(CC(=O)O)NC(=O)C(C(C)C(=O)O)NC(=O)C2CCCCN2C(=O)C(NC(=O)C(CC(=O)O)NC(=O)CCCCCCCCCCCCCC)C(C)NC(=O)C2CCCN2C(=O)C(C(C)C)NC1=O", "note": "(stereo not drawn) [Compound 218, C15-Amphomycin-9-Crotonyl] (Pentadecanoyl-D[ξAbu(βξ-NH2)][Pip][ξAsp(βξ-Me)]DGDG[X24]VP; lactam 2-C; configuration not given here)", "MIC": 8}
{"smiles": "CCCCCCCCCCCCCCC(=O)NC(CC(=O)O)C(=O)NC1C(=O)N2CCCCC2C(=O)NC(C(C)C(=O)O)C(=O)NC(CC(=O)O)C(=O)NCC(=O)NC(CC(=O)O)C(=O)NCC(=O)NC(C(C)NC(=O)CCCCCCCCC)C(=O)NC(C(C)C)C(=O)N2CCCC2C(=O)NC1C", "note": "(centres unmarked) [Compound 220, C15-Amphomycin-9-C10]", "MIC": 2}
{"smiles": "CCCCCCCCCCCCCCC(=O)NC(CC(=O)O)C(=O)NC1C(=O)N2CCCCC2C(=O)NC(C(C)C(=O)O)C(=O)NC(CC(=O)O)C(=O)NCC(=O)NC(CC(=O)O)C(=O)NCC(=O)NC(C(C)NC(=O)C(=O)CC)C(=O)NC(C(C)C)C(=O)N2CCCC2C(=O)NC1C", "note": "(stereo not drawn) [Compound 223, C15-Amphomycin-9-(α-Ketobutyl)] (Pentadecanoyl-D[ξAbu(βξ-NH2)][Pip][ξAsp(βξ-Me)]DGDG[X16]VP; lactam 2-C; configuration not given here)", "MIC": 16}
{"smiles": "CCCCCCCCCCCCCCC(=O)NC(CC(=O)O)C(=O)NC1C(=O)N2CCCCC2C(=O)NC(C(C)C(=O)O)C(=O)NC(CC(=O)O)C(=O)NCC(=O)NC(CC(=O)O)C(=O)NCC(=O)NC(C(C)NC(=O)/C=C(\\C)CCC=C(C)C)C(=O)NC(C(C)C)C(=O)N2CCCC2C(=O)NC1C", "note": "(stereo not drawn) [Compound 224, C15-Amphomycin-9-Geranyl] (Pentadecanoyl-D[ξAbu(βξ-NH2)][Pip][ξAsp(βξ-Me)]DGDG[X10]VP; lactam 2-C; configuration not given here)", "MIC": 8}
{"smiles": "CC#CC(=O)NC(C)C1NC(=O)CNC(=O)C(CC(=O)O)NC(=O)CNC(=O)C(CC(=O)O)NC(=O)C(C(C)C(=O)O)NC(=O)C2CCCCN2C(=O)C(NC(=O)C(CC(=O)O)NC(=O)CCCCCCCCCCCCCC)C(C)NC(=O)C2CCCN2C(=O)C(C(C)C)NC1=O", "note": "(stereo not drawn) [Compound 227, C15-Amphomycin-9-(2-Butynyl)] (Pentadecanoyl-D[ξAbu(βξ-NH2)][Pip][ξAsp(βξ-Me)]DGDG[X20]VP; lactam 2-C; configuration not given here)", "MIC": 32}
{"smiles": "CCCCCCCCCCCCCCC(=O)NC(CC(=O)O)C(=O)NC1C(=O)N2CCCCC2C(=O)NC(C(C)C(=O)O)C(=O)NC(CC(=O)O)C(=O)NCC(=O)NC(CC(=O)O)C(=O)NCC(=O)NC(C(C)NC(=O)CC(=O)OC)C(=O)NC(C(C)C)C(=O)N2CCCC2C(=O)NC1C", "note": "(stereo not drawn) [Compound 231] (Pentadecanoyl-D[ξAbu(βξ-NH2)][Pip][ξAsp(βξ-Me)]DGDG[X26]VP; lactam 2-C; configuration not given here)", "MIC": 8}
{"smiles": "CCCCCCCCCCCCCCC(=O)NC(CC(=O)O)C(=O)NC1C(=O)N2CCCCC2C(=O)NC(C(C)C(=O)O)C(=O)NC(CC(=O)O)C(=O)NCC(=O)NC(CC(=O)O)C(=O)NCC(=O)NC(C(C)NC(=O)C23CC4CC(CC(C4)C2)C3)C(=O)NC(C(C)C)C(=O)N2CCCC2C(=O)NC1C", "note": "(stereo not drawn) [Compound 232, C15-Amphomycin-9-(1-Adamantanylcarbonyl)] (Pentadecanoyl-D[ξAbu(βξ-NH2)][Pip][ξAsp(βξ-Me)]DGDG[X6]VP; lactam 2-C; configuration not given here)", "MIC": 4}
{"smiles": "CCCCCCCCCCCCCCC(=O)NC(CC(=O)O)C(=O)NC1C(=O)N2CCCCC2C(=O)NC(C(C)C(=O)O)C(=O)NC(CC(=O)O)C(=O)NCC(=O)NC(CC(=O)O)C(=O)NCC(=O)NC(C(C)NC(=O)CSC(C)=O)C(=O)NC(C(C)C)C(=O)N2CCCC2C(=O)NC1C", "note": "(stereo not drawn) [Compound 235, C15-Amphomycin-9-(S-Acetylthioglycolyl)] (Pentadecanoyl-D[ξAbu(βξ-NH2)][Pip][ξAsp(βξ-Me)]DGDG[X21]VP; lactam 2-C; configuration not given here)", "MIC": 2}
{"smiles": "CCCCCCCC/C=C/CCCCCCCC(=O)NC(C)C1NC(=O)CNC(=O)C(CC(=O)O)NC(=O)CNC(=O)C(CC(=O)O)NC(=O)C(C(C)C(=O)O)NC(=O)C2CCCCN2C(=O)C(NC(=O)C(CC(=O)O)NC(=O)CCCCCCCCCCCCCC)C(C)NC(=O)C2CCCN2C(=O)C(C(C)C)NC1=O", "note": "(stereo not drawn) [Compound 238, C15-Amphomycin-9-Oleate] (Pentadecanoyl-D[ξAbu(βξ-NH2)][Pip][ξAsp(βξ-Me)]DGDG[ξAbu(βξ-NH2)](X27)VP; lactam 2-C; configuration not given here)", "MIC": "1 to 2"}
{"smiles": "CCCCCCCCCCCCCCC(=O)NC(CC(=O)O)C(=O)NC1C(=O)N2CCCCC2C(=O)NC(C(C)C(=O)O)C(=O)NC(CC(=O)O)C(=O)NCC(=O)NC(CC(=O)O)C(=O)NCC(=O)NC(C(C)NC(=O)CCN2CCNCC2)C(=O)NC(C(C)C)C(=O)N2CCCC2C(=O)NC1C", "note": "(stereo not drawn) [Compound 241] (Pentadecanoyl-D[ξAbu(βξ-NH2)][Pip][ξAsp(βξ-Me)]DGDG[X40]VP; lactam 2-C; configuration not given here)", "MIC": "1 to 2"}
{"smiles": "CCCCCCCCCCCCCCC(=O)NC(CC(=O)O)C(=O)NC1C(=O)N2CCCCC2C(=O)NC(C(C)C(=O)O)C(=O)NC(CC(=O)O)C(=O)NCC(=O)NC(CC(=O)O)C(=O)NCC(=O)NC(C(C)NC(=O)CCCN(C)C)C(=O)NC(C(C)C)C(=O)N2CCCC2C(=O)NC1C", "note": "(stereo not drawn) [Compound 242, C15-Amphomycin-9-(N,N′-Dimethyl-GABA)] (Pentadecanoyl-D[ξAbu(βξ-NH2)][Pip][ξAsp(βξ-Me)]DGDG[X38]VP; lactam 2-C; configuration not given here)", "MIC": "1 to 2"}
{"smiles": "CCCCCCCCCCCCCCC(=O)NC(CC(=O)O)C(=O)NC1C(=O)N2CCCCC2C(=O)NC(C(C)C(=O)O)C(=O)NC(CC(=O)O)C(=O)NCC(=O)NC(CC(=O)O)C(=O)NCC(=O)NC(C(C)NC(=O)CNCC)C(=O)NC(C(C)C)C(=O)N2CCCC2C(=O)NC1C", "note": "(stereo not drawn) [Compound 243, C15-Amphomycin-9-(N-Ethyl-Gly)] (Pentadecanoyl-D[ξAbu(βξ-NH2)][Pip][ξAsp(βξ-Me)]DGDG[X44]VP; lactam 2-C; configuration not given here)", "MIC": "0.5 to 1"}
{"smiles": "CCCCCCCCCCCCCCC(=O)NC(CC(=O)O)C(=O)NC1C(=O)N2CCCCC2C(=O)NC(C(C)C(=O)O)C(=O)NC(CC(=O)O)C(=O)NCC(=O)NC(CC(=O)O)C(=O)NCC(=O)NC(C(C)NC(=O)CNCc2ccccc2)C(=O)NC(C(C)C)C(=O)N2CCCC2C(=O)NC1C", "note": "(stereo not drawn) [Compound 245, C15-Amphomycin-9-(N-Benzyl-Gly)] (Pentadecanoyl-D[ξAbu(βξ-NH2)][Pip][ξAsp(βξ-Me)]DGDG[X42]VP; lactam 2-C; configuration not given here)", "MIC": 1}
{"smiles": "CCCCCCCCCCCCCCC(=O)NC(CC(=O)O)C(=O)NC1C(=O)N2CCCCC2C(=O)NC(C(C)C(=O)O)C(=O)NC(CC(=O)O)C(=O)NCC(=O)NC(CC(=O)O)C(=O)NCC(=O)NC(C(C)NC(=O)CCN(CC)CC)C(=O)NC(C(C)C)C(=O)N2CCCC2C(=O)NC1C", "note": "(stereo not drawn) [Compound 246, C15-Amphomycin-9-(N,N-Diethyl-β-Ala)] (Pentadecanoyl-D[ξAbu(βξ-NH2)][Pip][ξAsp(βξ-Me)]DGDG[X45]VP; lactam 2-C; configuration not given here)", "MIC": 2}
{"smiles": "CCCCCCCCCCCCCCCCNC(=O)NC(CC(=O)O)C(=O)NC1C(=O)N2CCCCC2C(=O)NC(C(C)C(=O)O)C(=O)NC(CC(=O)O)C(=O)NCC(=O)NC(CC(=O)O)C(=O)NCC(=O)NC(C(C)N)C(=O)NC(C(C)C)C(=O)N2CCCC2C(=O)NC1C", "note": "(centres unmarked) [Compound 249, CH3—(CH2)15—NH—C(═O)-Amphomycin]", "MIC": "2 to 4"}
{"system": "Staphylococcus aureus (MSSA)", "settings": "S. aureus (MSSA), CAMHB supplemented with 0.625 mM calcium, 24 hours at about 37° C.; a range = compound tested multiple times", "in_short": "as §1", "units": {"MIC": "µg/mL"}}
{"smiles": "CCCCCCCCCCCCCCC(=O)NC(CC(=O)O)C(=O)NC1C(=O)N2CCCCC2C(=O)NC(C(C)C(=O)O)C(=O)NC(CC(=O)O)C(=O)NCC(=O)NC(CC(=O)O)C(=O)NCC(=O)NC(C(C)NC(=O)[C@@H]2CCC(=O)O2)C(=O)NC(C(C)C)C(=O)N2CCCC2C(=O)NC1C", "note": "(stereo partly drawn) [Compound 210, C15-Amphomycin-9-((S)-(+)-5-Oxo-2-Tetrahydrofurancarbonyl)]", "MIC": 2}
{"smiles": "CCCCCCCCCCCCCCC(=O)NC(CC(=O)O)C(=O)NC1C(=O)N2CCCCC2C(=O)NC(C(C)C(=O)O)C(=O)NC(CC(=O)O)C(=O)NCC(=O)NC(CC(=O)O)C(=O)NCC(=O)NC(C(C)NC(=O)CCCCC(C)=O)C(=O)NC(C(C)C)C(=O)N2CCCC2C(=O)NC1C", "note": "(centres unmarked) [Compound 237, C15-Amphomycin-9-(6-Oxoheptanoyl)]", "MIC": 16}
